The structures appear in SMILES notation.

This assay concerns the target Histone deacetylase. The assay is described as follows: Inhibition of histone deacetylase (HDAC) activity in HeLa cell nuclear extract. The assay is classed as cell-based, Homo sapiens.
The compound `CC(/C=C/C(=O)O)=C\c1ccc(NS(=O)(=O)c2ccc(Cl)cc2)cc1` yielded an IC50 above 100000 nM.
For the compound `CC(/C=C/C(=O)NO)=C\c1ccc(NS(=O)(=O)c2ccccc2)cc1`, the half-maximal inhibitory concentration (IC50) was 172 nM.
The figure for `CN(C)c1ccc(/C=C/C=C/C(=O)NO)cc1` is 1700 nM; for `CC(/C=C/C(=O)NO)=C\c1ccc(Cl)cc1` it is 302 nM; for `COc1ccc(S(=O)(=O)Nc2ccc(/C=C(C)/C=C/C(=O)NO)cc2)cc1` it is 74 nM.
The figure for `CC(/C=C/C(=O)NO)=C\c1ccc(NS(=O)(=O)c2ccc(Cl)cc2)cc1` is 49 nM; for `O=C(CCCCc1ccc(Cl)cc1)NO` it is 2580 nM.
The figure for `COc1ccc(S(=O)(=O)Nc2ccc(/C=C/C=C/C(=O)NO)cc2)cc1` is 10400 nM; for `O=C(/C=C/C=C/c1ccc(Cl)cc1)NO` it is 252 nM; for `CC(CCC(=O)NO)Cc1ccc(NS(=O)(=O)c2ccc(Cl)cc2)cc1` (configuration not stated) it is 1170 nM.
`O=C(/C=C/C=C/c1ccccc1)NO`: the IC50 was 279 nM.
The figure for `CC(/C=C/C(=O)NO)=C\c1ccc(N(C)C)cc1` is 788 nM.

Usually IC50 stands for the concentration that inhibits the measured activity by half. The low end stands for greater potency, the high end for weaker potency.

The record behind these values is ChEMBL document CHEMBL1146727, “Stereodefined and polyunsaturated inhibitors of histone deacetylase based on (2E,4E)-5-arylpenta-2,4-dienoic acid hydroxyamides” (Bioorg Med Chem Lett, 2004).
